Measured values taken from DBAASP.
In brackets after ≈: the same amount, converted by molar mass.

How the values were obtained:
Experiment in all cases: ≥ marks a high value that may be exact or a test limit, other limits are often not marked, values filed in µg/mL are converted to µM
Candida albicans = tested on: Candida albicans
Escherichia coli = tested on: Escherichia coli
Staphylococcus aureus = tested on: Staphylococcus aureus
Pseudomonas aeruginosa = tested on: Pseudomonas aeruginosa
[1] = tested on: Escherichia coli ATCC 25922
[2] = tested on: Pseudomonas aeruginosa PAO1
[3] = tested on: Candida albicans ATCC 90028
[4] = tested on: Pseudomonas aeruginosa ATCC 27853
[5] = tested on: Staphylococcus aureus ATCC 29213
[6] = tested on: Staphylococcus aureus ATCC 25923
Escherichia coli UB1005 = tested on: Escherichia coli UB1005

SMILES	MIC (Escherichia coli) [µM]	MIC (Staphylococcus aureus) [µM]	MIC (Pseudomonas aeruginosa) [µM]	MIC [1] [µM]	MIC [3] [µM]	other results
CC[C@H](C)[C@H](N)C(=O)N[C@@H](CC(C)C)C(=O)NCC(=O)N[C@@H](C)C(=O)N[C@H](C(=O)N[C@H](C(=O)N1CCC[C@H]1C(=O)N[C@@H](CC(C)C)C(=O)N[C@H](C(=O)N[C@@H](CO)C(=O)NCC(=O)N[C@@H](CC(C)C)C(=O)N[C@@H](CC(C)C)C(=O)N[C@@H](CO)C(=O)N[C@@H](Cc1cnc[nH]1)C(=O)N[C@@H](CC(C)C)C(N)=O)C(C)C)[C@@H](C)CC)[C@@H](C)CC [ILGAIIPLVSGLLSHL]	> 400	19.3 (≈ 31.2 µg/mL)	–	–	–	MIC (Candida albicans): 310 µM (≈ 501 µg/mL)
CC[C@H](C)[C@H](NC(=O)[C@H](Cc1ccccc1)NC(=O)[C@H](CO)NC(=O)[C@H](CCCCN)NC(=O)[C@H](Cc1c[nH]c2ccccc12)NC(=O)[C@@H](N)CCCCN)C(=O)N[C@@H](CCCCN)C(=O)N[C@@H](CCCCN)C(=O)N[C@@H](CCCN=C(N)N)C(=O)N[C@H](C(=O)N[C@@H](CO)C(=O)N[C@@H](CCCCN)C(=O)N[C@@H](Cc1ccccc1)C(=O)N[C@@H](CC(C)C)C(=O)N[C@@H](Cc1cnc[nH]1)C(=O)N[C@@H](CO)C(=O)N[C@@H](C)C(=O)N[C@@H](CCCCN)C(=O)N[C@@H](CCCCN)C(=O)N[C@@H](Cc1ccccc1)C(N)=O)[C@@H](C)O [KWKSFIKKRTSKFLHSAKKF]	–	–	> 20	–	–	–
CC[C@H](C)[C@H](NC(=O)CN)C(=O)NCC(=O)N[C@@H](CCCCN)C(=O)N[C@@H](Cc1ccccc1)C(=O)N[C@@H](CC(C)C)C(=O)N[C@@H](Cc1cnc[nH]1)C(=O)N[C@H](C(=O)N[C@@H](CC(C)C)C(=O)N[C@@H](CCCCN)C(=O)N[C@H](C(=O)N[C@@H](Cc1ccccc1)C(=O)NCC(=O)N[C@@H](CCCCN)C(=O)N[C@@H](CCCCN)C(=O)N[C@@H](Cc1c[nH]c2ccccc12)C(=O)N[C@H](C(=O)NCC(=O)N[C@@H](CCC(=O)O)C(=O)N[C@H](C(=O)N[C@@H](CCSC)C(=O)N[C@@H](CC(N)=O)C(=O)N[C@@H](CO)C(N)=O)[C@@H](C)CC)C(C)C)[C@@H](C)O)[C@@H](C)O [GIGKFLHTLKTFGKKWVGEIMNS]	13 (≈ 33.7 µg/mL)	13 (≈ 33.7 µg/mL)	13 (≈ 33.7 µg/mL)	–	–	–
CC[C@H](C)[C@H](NC(=O)[C@H](CCCN=C(N)N)NC(=O)[C@@H](NC(=O)[C@H](CCCN=C(N)N)NC(=O)[C@H](Cc1c[nH]c2ccccc12)NC(=O)[C@H](Cc1ccccc1)NC(=O)[C@H](Cc1ccccc1)NC(=O)[C@@H]1CCCN1)[C@@H](C)CC)C(=O)N[C@@H](CCCN=C(N)N)C(=O)N[C@@H](CCCN=C(N)N)C(N)=O [PFFWRIRIRR]	–	–	–	5.53 (≈ 7.99 µg/mL)	–	MIC [2]: 5.53 µM (≈ 7.99 µg/mL)
CC[C@H](C)[C@H](NC(=O)[C@H](CCCCN)NC(=O)[C@H](CC(=O)O)NC(=O)[C@H](CC(C)C)NC(=O)[C@H](CC(C)C)NC(=O)CNC(=O)[C@@H](NC(=O)[C@H](C)NC(=O)[C@H](CC(C)C)NC(=O)[C@H](CC(N)=O)NC(=O)[C@H](CCCCN)NC(=O)[C@H](C)NC(=O)[C@@H](NC(=O)[C@H](CC(N)=O)NC(=O)[C@H](CCCCN)NC(=O)[C@@H](NC(=O)[C@@H](NC(=O)[C@H](CC(=O)O)NC(=O)[C@H](CC(C)C)NC(=O)[C@H](CC(C)C)NC(=O)CN)[C@@H](C)O)[C@@H](C)CC)[C@@H](C)O)C(C)C)C(=O)N[C@@H](CCCCN)C(=O)N[C@H]1CSSC[C@@H](C(=O)O)NC(=O)CNC(=O)[C@H]([C@@H](C)O)NC(=O)[C@H](CCSC)NC(=O)[C@H](CCCCN)NC1=O [GLLDTIKNTAKNLAVGLLDKIKCKMTGC]	–	–	–	3 (≈ 8.88 µg/mL)	≥ 150	–
CC[C@H](C)[C@H](NC(=O)[C@H](CCCN=C(N)N)NC(=O)[C@H](CCC(N)=O)NC(=O)[C@@H](NC(=O)[C@@H](NC(=O)[C@H](CCCN=C(N)N)NC(=O)[C@@H](N)CCCCN)[C@@H](C)CC)C(C)C)C(=O)N[C@@H](C)C(=O)N[C@@H](CC(=O)O)C(=O)N[C@@H](Cc1ccccc1)C(=O)N[C@@H](CC(C)C)C(=O)N[C@@H](CCCN=C(N)N)C(=O)O [KRIVQRIADFLR]	–	–	–	40 (≈ 60.6 µg/mL)	≥ 40	MIC [4]: 40 µM (≈ 60.6 µg/mL); MIC [5]: 40 µM (≈ 60.6 µg/mL)
CC[C@H](C)[C@H](NC(=O)[C@H](CCCCN)NC(=O)[C@H](CS)NC(=O)[C@H](C)NC(=O)[C@@H](NC(=O)[C@H](Cc1ccccc1)NC(=O)CNC(=O)[C@H](CC(C)C)NC(=O)CNC(=O)[C@@H](NC(=O)[C@H](CCCCN)NC(=O)CNC(=O)[C@H](CC(C)C)NC(=O)[C@H](CC(N)=O)NC(=O)[C@H](CCCCN)NC(=O)[C@H](CC(C)C)NC(=O)[C@@H](NC(=O)[C@H](CO)NC(=O)[C@H](CC(C)C)NC(=O)[C@H](CCSC)NC(=O)[C@@H](N)CO)C(C)C)C(C)C)C(C)C)C(=O)N[C@@H](CCCCN)C(=O)N[C@@H](CCCCN)C(=O)N[C@@H](CCC(N)=O)C(=O)N[C@@H](CS)C(=O)O [SMLSVLKNLGKVGLGFVACKIKKQC]	10 (≈ 26.7 µg/mL)	20 (≈ 53.3 µg/mL)	–	–	–	MIC (Candida albicans): 20 µM (≈ 53.3 µg/mL)
CC(C)C[C@H](NC(=O)[C@H](C)NC(=O)[C@H](CCCCN)NC(=O)[C@H](Cc1c[nH]c2ccccc12)NC(=O)[C@H](CC(C)C)NC(=O)[C@H](CCCCN)NC(=O)[C@H](C)NC(=O)[C@H](CC(C)C)NC(=O)[C@H](C)NC(=O)[C@H](CCCCN)NC(=O)[C@H](C)NC(=O)[C@H](CC(C)C)NC(=O)[C@H](C)NC(=O)[C@@H](N)CCCCN)C(=O)N[C@@H](C)C(=O)N[C@@H](CCCCN)C(=O)N[C@@H](C)C(=O)N[C@@H](C)C(N)=O [KALAKALAKLWKALAKAA]	6 (≈ 11.2 µg/mL)	1.5 (≈ 2.8 µg/mL)	24 (≈ 44.8 µg/mL)	–	–	–
CC[C@H](C)[C@H](NC(=O)[C@@H](NC(=O)[C@H](CC(N)=O)NC(=O)[C@H](CC(C)C)NC(=O)[C@H](CC(C)C)NC(=O)CN)C(C)C)C(=O)N[C@@H](CCCCN)C(=O)N[C@@H](CC(=O)O)C(=O)N[C@H](C(=O)N[C@@H](C)C(=O)N[C@@H](CCC(N)=O)C(=O)N[C@@H](CC(N)=O)C(=O)N[C@@H](CC(C)C)C(=O)N[C@@H](Cc1ccccc1)C(=O)N[C@@H](C)C(=O)N[C@@H](C)C(=O)N[C@@H](C)C(=O)N[C@@H](CC(C)C)C(=O)N[C@@H](CCC(=O)O)C(=O)N[C@@H](CCCCN)C(=O)N[C@@H](CC(C)C)C(=O)N[C@@H](CCCCN)C(=O)N[C@H]1CSSC[C@@H](C(=O)N[C@@H](CC(N)=O)C(=O)O)NC(=O)[C@H](CCCCN)NC(=O)[C@H]([C@@H](C)O)NC(=O)[C@H](C(C)C)NC(=O)[C@H](CCCCN)NC1=O)[C@@H](C)O [GLLNVIKDTAQNLFAAALEKLKCKVTKCN]	–	–	–	80 (≈ 252 µg/mL)	≥ 160	MIC [6]: > 160 µM
CC[C@H](C)[C@H](NC(=O)CN)C(=O)NCC(=O)N[C@@H](CCCCN)C(=O)N[C@@H](Cc1ccccc1)C(=O)N[C@@H](CC(C)C)C(=O)N[C@@H](Cc1cnc[nH]1)C(=O)N[C@@H](CO)C(=O)N[C@@H](C)C(=O)N[C@@H](CCCCN)C(=O)N[C@@H](CCCCN)C(=O)N[C@@H](Cc1ccccc1)C(=O)NCC(=O)N[C@@H](CCCCN)C(=O)N[C@@H](C)C(=O)N[C@@H](Cc1c[nH]c2ccccc12)C(=O)N[C@H](C(=O)NCC(=O)N[C@@H](CCC(=O)O)C(=O)N[C@H](C(=O)N[C@@H](CCSC)C(=O)N[C@@H](CC(N)=O)C(=O)N[C@@H](CO)C(N)=O)[C@@H](C)CC)C(C)C [GIGKFLHSAKKFGKAWVGEIMNS]	40 (≈ 100 µg/mL)	> 80	80 (≈ 200 µg/mL)	–	–	–
CC(C)C[C@H](NC(=O)[C@H](C)NC(=O)[C@H](CC(C)C)NC(=O)[C@H](CCCCN)NC(=O)[C@H](CC(C)C)NC(=O)[C@H](C)NC(=O)[C@H](CC(C)C)NC(=O)[C@@H](N)CCCCN)C(=O)N[C@@H](CCCCN)C(=O)N[C@@H](C)C(=O)N[C@@H](Cc1c[nH]c2ccccc12)C(=O)N[C@@H](CCCCN)C(=O)N[C@@H](C)C(=O)N[C@@H](C)C(=O)N[C@@H](CC(C)C)C(=O)N[C@@H](CCCCN)C(=O)N[C@@H](CC(C)C)C(=O)N[C@@H](C)C(N)=O [KLALKLALKAWKAALKLA]	3.68 (≈ 7.17 µg/mL)	1.84 (≈ 3.58 µg/mL)	14.7 (≈ 28.7 µg/mL)	–	–	–
CC[C@H](C)[C@H](NC(=O)[C@H](Cc1cnc[nH]1)NC(=O)[C@H](CCCN=C(N)N)NC(=O)[C@@H]1CCCN1C(=O)[C@@H]1CCCN1C(=O)[C@H](CCCN=C(N)N)NC(=O)[C@@H]1CCCN1C(=O)[C@H](CCCN=C(N)N)NC(=O)[C@@H]1CCCN1C(=O)[C@H](CC(C)C)NC(=O)[C@H](Cc1ccc(O)cc1)NC(=O)[C@@H]1CCCN1C(=O)[C@@H]1CCCN1C(=O)[C@H](CCCCN)NC(=O)[C@H](CC(=O)O)NC(=O)[C@@H](N)C(C)C)C(=O)N[C@@H](Cc1ccc(O)cc1)C(=O)N[C@@H](CC(N)=O)C(=O)N[C@@H](CCCN=C(N)N)C(N)=O [VDKPPYLPRPRPPRHIYNR]	–	–	–	–	–	MIC (Escherichia coli UB1005): 0.548 µM (≈ 1.3 µg/mL); MIC [2]: 27 µM (≈ 64 µg/mL); MIC [6]: > 54 µM
CC[C@H](C)[C@H](NC(=O)[C@H](CC(C)C)NC(=O)[C@@H]1CCCN1C(=O)[C@H](CC(C)C)NC(=O)[C@@H](N)Cc1ccccc1)C(=O)N[C@@H](C)C(=O)NCC(=O)N[C@H](C(=O)N[C@@H](C)C(=O)N[C@@H](C)C(=O)N[C@@H](CO)C(=O)N[C@H](C(=O)N[C@@H](CC(C)C)C(=O)N1CCC[C@H]1C(=O)N[C@@H](CCCCN)C(=O)N[C@H](C(=O)N[C@@H](Cc1ccccc1)C(=O)N[C@H]1CSSC[C@@H](C(=O)O)NC(=O)[C@H](CCCCN)NC(=O)[C@H](CCCCN)NC(=O)[C@H]([C@@H](C)O)NC(=O)[C@H]([C@@H](C)CC)NC(=O)[C@H](Cc2ccccc2)NC1=O)[C@@H](C)CC)[C@@H](C)CC)C(C)C [FLPLIAGVAASILPKIFCFITKKC]	–	–	–	> 100	3 (≈ 7.78 µg/mL)	MIC [6]: 3 µM (≈ 7.78 µg/mL)
